Results as given in patent US8222404B2, “[1,2,4]Thiadiazin-3-yl acetic acid compound and methods of making the acetic acid compound” (Anadys Pharmaceuticals, Inc., priority 2008, dated 2012).

System: HCV Huh-luc/neo-ET replicon cells
Test: Luciferase-Based HCV Replicon Assay (EC50 (1b))
Assay type: cell-based
Conditions: Hepatitis C virus, 72 hours exposure, luciferase activity
How it was run: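 EC50 (1b) derived from % inhibition of luciferase signal relative to untreated cells, background set by 100 nM BILN-2061 (protease inhibitor). Triplicate dose series added to replicon cells 24 h post-seeding; luminescence measured after 72 h compound exposure.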

SMILES | EC50 [µM]
CS(=O)(=O)NCc1csc2c1S(=O)(=O)N=C(C1=C(O)C3CCCCC3N(Cc3ccsc3)C1=O)N2 (racemic) [Example 135, (rac-cis)-N-[3-(4-Hydroxy-2-oxo-1-thiophen-3-ylmethyl-1,2,4a,5,6,7,8,8a-octahydro-quinolin-3-yl)-1,1-dioxo-1,4-dihydro-1λ^6-thieno[2,3-e][1,2,4]thiadiazin-7-ylmethyl]-methanesulfonamide] | > 1
CS(=O)(=O)NCc1csc2c1S(=O)(=O)N=C(C1=C(O)C3CCCCCC3N(Cc3ccccc3)C1=O)N2 (racemic) [Example 136, (rac-cis)-N-[3-(1-Benzyl-4-hydroxy-2-oxo-2,4a,5,6,7,8,9,9a-octahydro-1H-cyclohepta[b]pyridin-3-yl)-1,1-dioxo-1,4-dihydro-1λ^6-thieno[2,3-e][1,2,4]thiadiazin-7-ylmethyl]-methanesulfonamide] | 0.02 to 0.1
CS(=O)(=O)NCc1csc2c1S(=O)(=O)N=C(C1=C(O)C3CCCCCC3N(Cc3ccc(F)c(F)c3)C1=O)N2 (racemic) [Example 137, (rac-cis)-N-{3-[1-(3,4-Difluoro-benzyl)-4-hydroxy-2-oxo-2,4a,5,6,7,8,9,9a-octahydro-1H-cyclohepta[b]pyridin-3-yl]-1,1-dioxo-1,4-dihydro-1λ^6-thieno[2,3-e][1,2,4]thiadiazin-7-ylmethyl}-methanesulfonamide] | 0.1 to 1
CC(C)CCN1C(=O)C(C2=NS(=O)(=O)c3c(CNS(C)(=O)=O)csc3N2)=C(O)C2CCCCCC21 (racemic) [Example 138, (rac-cis)-N-{3-[4-Hydroxy-1-(3-methyl-butyl)-2-oxo-2,4a,5,6,7,8,9,9a-octahydro-1H-cyclohepta[b]pyridin-3-yl]-1,1-dioxo-1,4-dihydro-1λ^6-thieno[2,3-e][1,2,4]thiadiazin-7-ylmethyl}-methanesulfonamide] | 0.02 to 0.1
Cc1cc(CN2C(=O)C(C3=NS(=O)(=O)c4c(CNS(C)(=O)=O)csc4N3)=C(O)C3CCCCCC32)ccc1F (racemic) [Example 139, (rac-cis)-N-{3-[1-(4-Fluoro-3-methyl-benzyl)-4-hydroxy-2-oxo-2,4a,5,6,7,8,9,9a-octahydro-1H-cyclohepta[b]pyridin-3-yl]-1,1-dioxo-1,4-dihydro-1λ^6-thieno[2,3-e][1,2,4]thiadiazin-7-ylmethyl}-methanesulfonamide] | > 1
CS(=O)(=O)NCc1csc2c1S(=O)(=O)N=C(C1=C(O)C3CCCCCC3N(Cc3cc(F)c(F)c(F)c3)C1=O)N2 (racemic) [Example 140, (rac-cis)-N-{3-[4-Hydroxy-2-oxo-1-(3,4,5-trifluoro-benzyl)-2,4a,5,6,7,8,9,9a-octahydro-1H-cyclohepta[b]pyridin-3-yl]-1,1-dioxo-1,4-dihydro-1λ^6-thieno[2,3-e][1,2,4]thiadiazin-7-ylmethyl}-methanesulfonamide] | > 1
CS(=O)(=O)NCc1csc2c1S(=O)(=O)N=C(C1=C(O)C3CCCCCC3N(Cc3ccsc3)C1=O)N2 (racemic) [Example 141, (rac-cis)-N-[3-(4-Hydroxy-2-oxo-1-thiophen-3-ylmethyl-2,4a,5,6,7,8,9,9a-octahydro-1H-cyclohepta[b]pyridin-3-yl)-1,1-dioxo-1,4-dihydro-1λ^6-thieno[2,3-e][1,2,4]thiadiazin-7-ylmethyl]-methanesulfonamide] | > 1
CS(=O)(=O)NCc1csc2c1S(=O)(=O)N=C(C1=C(O)C3C4CCCC(CC4)C3N(Cc3ccc(F)cc3)C1=O)N2 (racemic) [Example 142, (rac-di-exo)-N-{3-[3-(4-Fluoro-benzyl)-6-hydroxy-4-oxo-3-aza-tricyclo[6.3.2.0^2,7]tridec-5-en-5-yl]-1,1-dioxo-1,4-dihydro-1λ^6-thieno[2,3-e][1,2,4]thiadiazin-7-ylmethyl}-methanesulfonamide] | 0.02 to 0.1
